Measured values as given in patent publication US20220183994A1, “DELIVERY DEVICES FOR LOCALIZED DELIVERY OF ANTIMICROBIAL, ANTI-INFLAMMATORY, AND ANTIOXIDANT AGENTS” (priority 2019, published 2022).
Read-outs that look alike come from different tables or passages of the source. Blank lines part the entries; values can stand above or below the compound they belong to.

How the values were obtained:
[1] = tested on: 31 P. aeruginosa isolates; test: MIC90/MBC90 over expanded isolate panel; format: cell-based, Pseudomonas aeruginosa
16HBE cells [2] = tested on: 16HBE cells
Method: Cells were seeded at a density of 25,000 cells/well in a 96-well plate and incubated overnight as described above. […] ALAMARBLUE® test reagent was added to each well, and the plates were incubated as described above. At 8-hour and 24-hour timepoints, absorbance was measured at 570 and 600 nm, normalized to media only controls, and analyzed per manufacturer's instructions. All experiments were performed with 6 technical replicates and 3 biological replicates.
Statistics. All data were analyzed using GraphPad Prism 7 (GraphPad Software, Inc., La Jolla, Calif.). […] Additionally, non-linear regression was used to deduce the lethal dose at median cell viability (LD50) for cell viability assays.

[3] = tested on: human bronchial epithelial (16HBE) cells; test: Cellular ROS/Superoxide Detection Assay in silver-exposed cells; format: cell-based
Method: Cellular ROS and superoxide levels were measured in 16HBE cells using a Cellular ROS/Superoxide Detection Assay Kit according to manufacturer's recommended protocol. Briefly, cells were seeded at a density of 25,000 cells/well in a black wall/clear bottom 96-well plate and incubated for 24 h as described above. Next, the feeding media was aspirated and cells were incubated with fresh media supplemented with or without 10 mM NAC for 2 h. […] Upon staining, the fluorescence signal from the two fluorescent dyes, green signal from ROS detection probe (Ex/Em=490/525 nm) and orange signal from superoxide detection probe (Ex/Em=550/620 nm), were quantified using a BioTek Instruments Cytation 5 Multimode Reader at 0, 4, 6, 8, and 24 h. […] All experiments were performed with 6 technical replicates and a minimum of 2 biological replicates.

16HBE cells [4] = test: Glucose/lactate (BioProfile analyzer) and metabolite pool size and labeling (GC-MS); format: cell-based, human
Method: Analysis of total metabolite pool size and metabolite labeling patterns using Gas Chromatography-Mass Spectroscopy. 16HBE cells were seeded at a density of 250,000 cells per dish in a 60 mm cell culture dish and incubated until they reached 90% confluency. During this period, feeding media was replaced every 48 h. Once confluent, the media was aspirated, cells were washed with 1× PBS, and incubated with 2 mL 0 or 10 mM NAC for 2 h. […] At 8 h, the feeding medium from each plate was collected, centrifuged at 1000 rpm for 5 min to remove any cell debris, and frozen at −80° C., until further analysis. The cells were washed twice with 1× PBS, re-suspended by gentle scraping in 1 mL chilled 50% methanol solution, cell lysate collected in centrifuge tubes, flash frozen using liquid nitrogen, and stored at −80° C. till analysis.
MEM and stock solution of 4 mM GLN-10 mM D-[U^13C]-GLC medium treated in an identical manner were used as controls.
Cell suspensions frozen in 50% methanol were thawed and subjected to three additional freeze-thaw cycles using liquid nitrogen and a water bath. Subsequently, the cell suspensions were centrifuged at 14,000 rpm for 10 min to remove cell debris, and the supernatants were transferred to individually labeled glass drying tubes. 10 μl of an internal standard (50 nmols of sodium 2-oxobutyrate) was added to each tube at this time, and the samples were air-dried on a heat block. The dried samples were derivatized by addition of 100 μl of Tri-sil HTP reagent (Thermo Scientific) to each tube, capping the tube, vortexing the samples, and placing them on the heat block for an additional 30 min. The derivatized samples were transferred to auto-injector vials and analyzed using gas chromatography-mass spectroscopy (GC-MS; Agilent Technologies, Santa Clara, Calif.). Separately, the cell pellets with residual cell lysate was collected, contents thoroughly mixed with 200 μL 0.1 N sodium hydroxide, and heated to 100° C. to extract and solubilize the proteins. The samples were cooled and analyzed using a standard BCA assay to quantify the protein content. All metabolite concentrations determined using the BioProfile Basic-4 analyzer (NOVA) and GC-MS were normalized with the protein content.

16HBE cells [5] = test: ATP content (ATP determination kit); format: cell-based, human; conditions: 10 mM NAC pre-incubation, silver acetate 8 h, vs cells exposed to silver alone
Method: 50,000 16HBE cells were seeded in each well of a 96-well plate and the cells were allowed to attach. At 24 h, media was aspirated, and cells were pre-incubated with 80 μL of 0 or 10 mM concentrations of NAC for 2 h. […] Finally, the cell lysate was collected and the ATP concentration determined and correlated to an established standard curve. Briefly, a standard reaction mixture consisting of molecular grade water, reaction buffer, Dithiothreitol (DTT) solution, D-luciferin, and firefly luciferase at manufacturer recommended concentrations was prepared. Next, 10 μL of standard ATP solution or cell lysate was mixed with 90 μL standard reaction mixture in a 96-well white bottom plate and luminescence was measured at 560 nm. Background luminescence was subtracted from all readings and the data were normalized to drug free controls.

[6] = Total Antioxidant Capacity Assay (Trolox standard curve, Cu+2 probe); conditions: 10 mM antioxidant, compared with trolox
Method: Activity of antioxidants. […] A standard curve correlating the Trolox concentration to the antioxidant capacity was generated according to manufacturer's protocol. […] Two million 16HBE cells were seeded into each well of a 12-well plate and incubated overnight as described above. […] Finally, the insoluble cell debris was removed by centrifugation and the supernatant analyzed as described above to determine the total antioxidant capacity. All experiments were performed with 4 technical replicates and two biological replicates.

[7] = 50 μg/mL silver acetate after 10 mM antioxidant pre-incubation

MIC90 ([1]; concentration required to inhibit 90% of 31 P. aeruginosa isolates): 4 µg/mL
Structure (SMILES): CC(C)Cc1ccc(C(C)C(=O)O)cc1.[Ag] (stereo not drawn) [Silver Ibuprofen, silver salt of ibuprofen]
MBC90 ([1]; concentration required to eradicate 90% of 31 P. aeruginosa isolates): 4 µg/mL

Structure (SMILES): CC(=O)N[C@@H](CS)C(=O)O [NAC, N-acetyl cysteine]
cell survival (16HBE cells [2]; [7]): 86% | effect of NAC pre-incubation itself on superoxide levels [3]: no effect | superoxide levels ([3]; 10 mM NAC pre-incubation, 10, 20, and 50 μg/mL silver acetate, 8 and 24 hours): significantly (p≤0.001) lower | ROS levels ([3]; 10 mM NAC pre-incubation, silver acetate higher than 20 μg/mL, 8 and 24 hours): significantly (p≤0.001) lower | superoxide levels ([3]; NAC pre-incubation, 100 μg/mL silver acetate, 8 hours): significantly (p≤0.01) lower | superoxide levels ([3]; NAC pre-incubation, 100 μg/mL silver acetate, 24 hours): not at 24 hours | ROS induced by NAC pre-incubation itself ([3]; subsides after 8 hours): initially induces ROS | lactate levels (GC-MS) (16HBE cells [4]; NAC pre-incubated cells, 50 μg/mL silver acetate only): significantly higher | citrate, glutamate, fumarate, and malate levels (16HBE cells [4]; NAC pre-incubated cells, 30, 40, 50, and 75 μg/mL silver acetate): significantly (p≤0.05) higher | aspartate levels (16HBE cells [4]; NAC pre-incubated cells, 50 and 75 μg/mL silver acetate): significantly (p≤0.05) higher | glucose consumption and lactate production (16HBE cells [4]; cells pre-treated with 0 vs 10 mM NAC): No significant difference | labeling patterns of key metabolites (16HBE cells [4]; pre-incubation with NAC): does not appreciably alter | ATP production (16HBE cells [5]): significantly higher

Structure (SMILES): O=C1O[C@H]([C@@H](O)CO)C(O)=C1O [Ascorbic Acid, ascorbic acid]
cell survival (16HBE cells [2]; [7]): 22% | cell survival (16HBE cells [2]; 7.5 and 10 mM ascorbic acid pre-incubation, up to 100 μg/mL silver acetate): significantly (p<0.05) higher | antioxidant capacity, trolox equivalent [6]: 40 fold
